In PubChem BioAssay AID256 (DTP/NCI, 2004):
Inconclusive results and toxic doses are left out.

System: CD2F1 mice, L1210 leukemia ip, survival T/C
Experiment: NCI In Vivo Anticancer Drug Screen. Data for tumor model L1210 Leukemia (intraperitoneal) in CD2F1 (CDF1) mice
Conditions: higher = longer survival
Summary of the method: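 Tumor-bearing mice (transplanted tumor) were split into treated and vehicle control groups, and the measured endpoint of each treated group was divided by that of its vehicle controls.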

[1] = endpoint: mean survival time, dose: 50.0 mg/kg/injection, schedule: Q01DX001 (ip), vehicle: saline with Tween-80
[2] = endpoint: mean survival time, dose: 100.0 mg/kg/injection, schedule: Q01DX001 (ip), vehicle: saline with Tween-80
[3] = endpoint: mean survival time, dose: 100.0 mg/kg/injection, schedule: Q04DX003 (ip), vehicle: saline with Tween-80
[4] = endpoint: mean survival time, dose: 200.0 mg/kg/injection, schedule: Q04DX003 (ip), vehicle: saline with Tween-80
[5] = endpoint: mean survival time, dose: 400.0 mg/kg/injection, schedule: Q04DX003 (ip), vehicle: saline with Tween-80
[6] = endpoint: mean survival time, dose: 50.0 mg/kg/injection, schedule: Q01DX009 (ip), vehicle: saline with Tween-80
[7] = endpoint: mean survival time, dose: 100.0 mg/kg/injection, schedule: Q01DX009 (ip), vehicle: saline with Tween-80
[8] = endpoint: mean survival time, dose: 200.0 mg/kg/injection, schedule: Q01DX009 (ip), vehicle: saline with Tween-80
[9] = endpoint: mean survival time, dose: 400.0 mg/kg/injection, schedule: Q01DX009 (ip), vehicle: saline with Tween-80
[10] = endpoint: mean survival time, dose: 100.0 mg/kg/injection, schedule: Q04DX002 (ip), vehicle: saline with Tween-80

c1cc(-c2ncc[nH]2)ccn1
T/C (endpoint: mean survival time, dose: 25.0 mg/kg/injection, schedule: Q01DX001 (ip), vehicle: saline with Tween-80): 112 % of control
T/C [1]: 96 % of control
T/C [2]: 104 % of control

O=C(O)c1c(Cl)c(Cl)c(Cl)c(Cl)c1Cl
T/C [3]: 98 % of control
T/C [4]: 98 % of control
T/C [5]: 98 % of control

CC(C)(CCC(C)(C)c1ccccc1)c1ccccc1
T/C [6]: 96 % of control
T/C [7]: 96 % of control
T/C [8]: 96 % of control

O=[N+]([O-])/C=C\c1cc2c3c(c1)CCCN3CCC2
T/C (endpoint: mean survival time, dose: 3.13 mg/kg/injection, schedule: Q01DX009 (ip), vehicle: saline with Tween-80): 105 % of control
T/C (endpoint: mean survival time, dose: 6.25 mg/kg/injection, schedule: Q01DX009 (ip), vehicle: saline with Tween-80): 97 % of control
T/C (endpoint: mean survival time, dose: 12.5 mg/kg/injection, schedule: Q01DX009 (ip), vehicle: saline with Tween-80): 100 % of control
T/C [1]: 105 % of control
T/C [2]: 103 % of control

ClC(Cl)(Cl)C1OCCO1
T/C [7]: 95 % of control
T/C [3]: 97 % of control
T/C [8]: 104 % of control
T/C [4]: 102 % of control
T/C [9]: 91 % of control
T/C [5]: 97 % of control

CCCCCCCCS
T/C [7]: 100 % of control
T/C [8]: 91 % of control
T/C [9]: 92 % of control

CC(C)C(O)(C(=O)O)C(C)O (stereo not given)
T/C (endpoint: mean survival time, dose: 12.5 mg/kg/injection, schedule: Q01DX009 (ip), vehicle: water): 96 % of control
T/C (endpoint: mean survival time, dose: 25.0 mg/kg/injection, schedule: Q01DX009 (ip), vehicle: water): 94 % of control
T/C (endpoint: mean survival time, dose: 50.0 mg/kg/injection, schedule: Q01DX009 (ip), vehicle: water): 88 % of control
T/C (endpoint: mean survival time, dose: 100.0 mg/kg/injection, schedule: Q01DX009 (ip), vehicle: water): 89 % of control

N#Cc1ccc(C(Cl)(Cl)Cl)cc1
T/C [3]: 104 % of control
T/C [4]: 98 % of control
T/C [5]: 96 % of control

O=S(=O)(O)SCCN1CCCC1
T/C (endpoint: mean survival time, dose: 12.5 mg/kg/injection, schedule: Q01DX009 (ip), vehicle: saline): 107 % of control
T/C (endpoint: mean survival time, dose: 12.5 mg/kg/injection, schedule: Q04DX003 (ip), vehicle: saline sonified): 101 % of control
T/C (endpoint: mean survival time, dose: 25.0 mg/kg/injection, schedule: Q01DX009 (ip), vehicle: saline): 104 % of control
T/C (endpoint: mean survival time, dose: 25.0 mg/kg/injection, schedule: Q04DX003 (ip), vehicle: saline sonified): 98 % of control
T/C (endpoint: mean survival time, dose: 50.0 mg/kg/injection, schedule: Q01DX009 (ip), vehicle: saline): 102 % of control
T/C (endpoint: mean survival time, dose: 50.0 mg/kg/injection, schedule: Q04DX003 (ip), vehicle: saline sonified): 96 % of control

CC(=O)OC1C(OC(C)=O)C(OC(C)=O)C(OC(C)=O)C(OC(C)=O)C1OC(C)=O (stereo not given)
T/C [10]: 100 % of control
T/C (endpoint: mean survival time, dose: 200.0 mg/kg/injection, schedule: Q04DX002 (ip), vehicle: saline with Tween-80): 86 % of control
T/C (endpoint: mean survival time, dose: 400.0 mg/kg/injection, schedule: Q04DX002 (ip), vehicle: saline with Tween-80): 93 % of control

Cc1ccc2nc(-c3ccc([N+](=O)[O-])cc3)oc(=O)c2c1
T/C [6]: 93 % of control
T/C [7]: 97 % of control
T/C [8]: 93 % of control

O=C(CC(c1ccc(Cl)cc1)P(=O)(c1ccccc1)c1ccccc1)c1ccccc1 (stereo not given)
T/C [7]: 90 % of control
T/C [8]: 98 % of control
T/C [9]: 97 % of control

Cc1cc(C)c(O)c(C)c1C
T/C (endpoint: mean survival time, dose: 31.25 mg/kg/injection, schedule: Q01DX009 (ip), vehicle: saline): 100 % of control
T/C (endpoint: mean survival time, dose: 62.5 mg/kg/injection, schedule: Q01DX009 (ip), vehicle: saline): 91 % of control
T/C (endpoint: mean survival time, dose: 125.0 mg/kg/injection, schedule: Q01DX009 (ip), vehicle: saline): 95 % of control
T/C (endpoint: mean survival time, dose: 250.0 mg/kg/injection, schedule: Q01DX009 (ip), vehicle: saline): 93 % of control

O=CC(O)C(O)C(OC1OC(CO)C(OC2OC(CO)C(O)C(O)C2O)C(O)C1O)C(O)CO (stereo not given)
T/C [7]: 98 % of control
T/C [8]: 95 % of control
T/C [9]: 95 % of control

O=[N+]([O-])c1ccc(S(=O)Cc2ccccc2)c([N+](=O)[O-])c1 (stereo not given)
T/C (endpoint: mean survival time, dose: 75.0 mg/kg/injection, schedule: Q01DX001 (ip), vehicle: other): 100 % of control

CN(Cc1cnc2nc(N)nc(N)c2n1)c1ccc(C(=O)NC(CCC(=O)O)C(=O)NC(CCC(=O)O)C(=O)O)cc1 (stereo not given)
T/C (endpoint: mean survival time, dose: 1.0 mg/kg/injection, schedule: Q01DX009 (ip), vehicle: sodium bicarbonate): 105 % of control
T/C (endpoint: mean survival time, dose: 2.0 mg/kg/injection, schedule: Q01DX009 (ip), vehicle: sodium bicarbonate): 100 % of control
T/C (endpoint: mean survival time, dose: 5.0 mg/kg/injection, schedule: Q01DX009 (ip), vehicle: sodium bicarbonate): 102 % of control
T/C (endpoint: mean survival time, dose: 25.0 mg/kg/injection, schedule: Q01DX009 (ip), vehicle: sodium bicarbonate): 167 % of control

[Cl][Pt][Cl].c1ccc([PH+](CC[PH+](c2ccccc2)c2ccccc2)c2ccccc2)cc1
T/C (endpoint: mean survival time, dose: 37.5 mg/kg/injection, schedule: Q04DX003 (ip), vehicle: saline): 98 % of control
T/C (endpoint: mean survival time, dose: 75.0 mg/kg/injection, schedule: Q04DX003 (ip), vehicle: saline): 93 % of control
T/C (endpoint: mean survival time, dose: 150.0 mg/kg/injection, schedule: Q04DX003 (ip), vehicle: saline): 96 % of control
T/C (endpoint: mean survival time, dose: 300.0 mg/kg/injection, schedule: Q04DX003 (ip), vehicle: saline): 95 % of control

CC(C)=NNS(=O)(=O)c1ccc(C)cc1
T/C (endpoint: mean survival time, dose: 25.0 mg/kg/injection, schedule: Q01DX009 (ip), vehicle: Klucel (hydroxypropylcellulose) (HPC)): 102 % of control
T/C (endpoint: mean survival time, dose: 50.0 mg/kg/injection, schedule: Q01DX009 (ip), vehicle: Klucel (hydroxypropylcellulose) (HPC)): 96 % of control
T/C (endpoint: mean survival time, dose: 100.0 mg/kg/injection, schedule: Q01DX009 (ip), vehicle: Klucel (hydroxypropylcellulose) (HPC)): 93 % of control
T/C (endpoint: mean survival time, dose: 200.0 mg/kg/injection, schedule: Q01DX009 (ip), vehicle: Klucel (hydroxypropylcellulose) (HPC)): 86 % of control
T/C (endpoint: mean survival time, dose: 400.0 mg/kg/injection, schedule: Q01DX009 (ip), vehicle: Klucel (hydroxypropylcellulose) (HPC)): 91 % of control

O=C1C2=C(Nc3cc([N+](=O)[O-])ccc3N2)OC1c1ccccn1 (stereo not given)
T/C (endpoint: median survival time, dose: 25.0 mg/kg/injection, schedule: Q01DX005 (ip), vehicle: Klucel (hydroxypropylcellulose) (HPC)): 102 % of control
T/C (endpoint: median survival time, dose: 50.0 mg/kg/injection, schedule: Q01DX005 (ip), vehicle: Klucel (hydroxypropylcellulose) (HPC)): 108 % of control
T/C (endpoint: median survival time, dose: 100.0 mg/kg/injection, schedule: Q01DX005 (ip), vehicle: Klucel (hydroxypropylcellulose) (HPC)): 108 % of control

O=C(O)C1=CC(O)C(O)C(O)C1 (stereo not given)
T/C (endpoint: mean survival time, dose: 100.0 mg/kg/injection, schedule: Q04DX003 (ip), vehicle: saline): 102 % of control
T/C (endpoint: mean survival time, dose: 200.0 mg/kg/injection, schedule: Q04DX003 (ip), vehicle: saline): 96 % of control
T/C (endpoint: mean survival time, dose: 400.0 mg/kg/injection, schedule: Q04DX003 (ip), vehicle: saline): 90 % of control

Nc1ncnc2c1ncn2CC(N)C(=O)O (stereo not given)
T/C (endpoint: mean survival time, dose: 100.0 mg/kg/injection, schedule: Q01DX001 (ip), vehicle: saline): 103 % of control
T/C (endpoint: mean survival time, dose: 200.0 mg/kg/injection, schedule: Q01DX001 (ip), vehicle: saline): 107 % of control
T/C (endpoint: mean survival time, dose: 400.0 mg/kg/injection, schedule: Q01DX001 (ip), vehicle: saline): 105 % of control

CSC(=S)N/N=C(\C)c1ccccn1
T/C (endpoint: mean survival time, dose: 25.0 mg/kg/injection, schedule: Q04DX003 (ip), vehicle: saline with Tween-80): 98 % of control
T/C (endpoint: mean survival time, dose: 50.0 mg/kg/injection, schedule: Q04DX003 (ip), vehicle: saline with Tween-80): 107 % of control
T/C [3]: 110 % of control

C=CCN1C(=O)C=CC1=O
T/C (endpoint: mean survival time, dose: 25.0 mg/kg/injection, schedule: Q04DX002 (ip), vehicle: saline with Tween-80): 95 % of control
T/C (endpoint: mean survival time, dose: 50.0 mg/kg/injection, schedule: Q04DX002 (ip), vehicle: saline with Tween-80): 91 % of control
T/C [10]: 88 % of control

CC(O)C(O)C=O (stereo not given)
T/C (endpoint: mean survival time, dose: 72.0 mg/kg/injection, schedule: Q03HX008 (ip), vehicle: saline): 100 % of control
T/C (endpoint: mean survival time, dose: 120.0 mg/kg/injection, schedule: Q03HX008 (ip), vehicle: saline): 97 % of control
T/C (endpoint: mean survival time, dose: 200.0 mg/kg/injection, schedule: Q03HX008 (ip), vehicle: saline): 102 % of control
T/C (endpoint: mean survival time, dose: 248.0 mg/kg/injection, schedule: Q01DX009 (ip), vehicle: saline): 101 % of control
T/C (endpoint: mean survival time, dose: 346.0 mg/kg/injection, schedule: Q01DX009 (ip), vehicle: saline): 104 % of control
T/C (endpoint: mean survival time, dose: 576.0 mg/kg/injection, schedule: Q01DX001 (ip), vehicle: saline): 97 % of control
T/C (endpoint: mean survival time, dose: 576.0 mg/kg/injection, schedule: Q01DX009 (ip), vehicle: saline): 107 % of control
T/C (endpoint: mean survival time, dose: 960.0 mg/kg/injection, schedule: Q01DX001 (ip), vehicle: saline): 94 % of control
T/C (endpoint: mean survival time, dose: 1600.0 mg/kg/injection, schedule: Q01DX001 (ip), vehicle: saline): 102 % of control
